Assay results published in US5608069A, “1-substituted, 3-carboxylic acid piperidine derivatives” (Novo Nordisk A/S, priority 1993, dated 1997).
Structures can show the parent of a compound that is named as a salt.

Columns and labels:
[^3 H]-GABA uptake = in vitro inhibition of [^3 H]-GABA uptake (rat cortical tissue homogenate); format: biochemical, Male wistar rat; details: tris HCl buffer pH 7.5, 60 minutes at 30° C.
Procedure: Values for in vitro inhibition of [^3 H]-GABA uptake for the invention compounds were assessed essentially by the method of Fjalland (Acta Pharmacol. Toxicol. 1978, 42, 73-76). Male wistar rat cortical tissue was gently homogenized by hand using a glass/PTFE homogenizer in 10 volumes of 0.32M sucrose. Incubation was performed in a 40 mM tris HCl buffer (pH 7.5 at 30° C.) containing […], 4 mM MgSO4, […] and 10 mM glucose, for 60 minutes at 30° C. Values for inhibition of GABA uptake for some representative compounds are recorded in Table I.

[1] = relatively polar compound; cited from earlier work
GABA uptake = details: cited from earlier work; for orally active inhibition of GABA uptake (in words): Yunger, L. M. et al., 1984, Krogsgaard-Larsen, P. et al., 1987, oral

SMILES | IC50 ([^3 H]-GABA uptake) | orally active inhibition of GABA uptake (in words) (GABA uptake) | other results
CC(C)C=C(C=NOCCN1CCC[C@@H](C(=O)O)C1)c1ccccc1 [Example 2] | 0.236 µM |  | 
CCCCCCC/C(=N/OCCN1CCC[C@@H](C(=O)O)C1)c1ccccc1 [Example 3, Z-(R)-1-(2-(((1-Phenyl-1-octanylidene)amino)oxy)ethyl)-3-piperidinecarboxylic acid hydrochloride] | 2.2 µM |  | 
O=C(O)C1CCCNC1 (stereo not drawn) [nipecotic acid, 3-piperidinecarboxylic acid] |  |  | ability to cross the blood-brain barrier (in words) [1]: unable to cross the blood-brain barrier; inhibition of GABA uptake (in words) (GABA uptake; from the synaptic cleft into presynaptic nerve terminals and glial cells): well-known and potent inhibitor of GABA uptake
O=C(O)[C@@H]1CCCN(CCO/N=C(/c2ccccc2)C(F)(F)F)C1 [Example 6, Z-(R)-1-(2-(((1-Phenyl-2,2,2-trifluoro-1-ethylidene)amino)oxy)ethyl)-3-piperidinecarboxylic acid hydrochloride] | 4.5 µM |  | 
O=C(O)CC1CCN(CCC=C(c2ccccc2)c2ccccc2)C1 (stereo not drawn) [SK&F 100561, N-(4,4-diphenyl-3-buten-1-yl)-homo-β-proline] |  | orally active inhibitors of GABA uptake | 
O=C(O)C1=CCCN(CCC=C(c2ccccc2)c2ccccc2)C1 [SK&F 100330A, N-(4,4-diphenyl-3-buten-1-yl)guvacine] |  | orally active inhibitors of GABA uptake | 
O=C(O)C1CCCN(CCC=C(c2ccccc2)c2cccs2)C1 (stereo not drawn) [SK&F 100604J, N-(4-phenyl-4-(2-thienyl)-3-buten-1-yl)nipecotic acid] |  | orally active inhibitors of GABA uptake | 
O=C(O)C1CCCN(CCC=C(c2ccccc2)c2ccccc2)C1 (stereo not drawn) [SK&F 89976A, N-(4,4-diphenyl-3-buten-1-yl)nipecotic acid] |  | orally active inhibitors of GABA uptake | 
Cc1ccccc1/C=N/OCCN1CCC[C@@H](C(=O)O)C1 [Example 1, E-(R )-1-(2-((((2-Methylphenyl)methylene)amino)oxy)ethyl)-3-piperidinecarboxylic acid hydrochloride] | > 9 µM |  | 
CCCCCCC/C(=N\OCCN1CCC[C@@H](C(=O)O)C1)c1ccccc1 [Example 4, E-(R)-1-(2-(((1-Phenyl-1-octanylidene)amino)oxy)ethyl)-3-piperidinecarboxylic acid hydrochloride] | 1.1 µM |  | 
COC/C(=N\OCCN1CCC[C@@H](C(=O)O)C1)c1ccccc1 [Example 5, Z-(R)-1-(2-(((2-Methoxy-1-phenyl-1-ethylidene)amino)oxy)ethyl)-3-piperidinecarboxylic acid hydrochloride] | 2 µM |  | 
